Data published in patent US8536148B2, “Disabling autophagy as a treatment for lysosomal storage diseases” (The United States of America, as Represented by the …, priority 2009, dated 2013).
Entries after “also recorded” stand apart in the source; their conditions may differ.

Columns and labels:
[1] = intraperitoneal; Sigma MSDS; cited from earlier work
TA muscle = assay type: in vivo
autophagy = experiment: Inhibition of autophagy by 3-MA injected into TA muscle (histology, LC3, glycogen content); assay type: in vivo; details: 40 l of 5 mg/ml per TA, two injections six days apart, harvested two to three days after second injection
Method: 3-MA was administered using the highest possible safety dose (40 l of 5 mg/ml per TA) determined from the above-described study. Two injections (six days apart) were given into TA muscle. Two to three days after the second injection, the treated muscles were harvested to examine the histology, the level of autophagy marker LC3, and the glycogen content.

GAA−/− mice [2] = experiment: Effect of ERT on glycogen levels in GAA−/− mice (biochemical glycogen measurement, PAS staining); assay type: in vivo, mouse; details: for Treated vs. Untreated GAA−/− % Reduction / Glycogen level, Treated / Excess Glycogen: GAA−/−; for Glycogen level, Treated: rhGAA 100 mg/kg i.v., three injections every other week; for Excess Glycogen: treated value minus wild type level
Method: (§1) Glycogen concentration in skeletal muscle was evaluated by measuring the amount of glucose released after treatment of tissue extracts with Aspergillus niger amyloglucosidase as described (Kikuchi et al., J. Clin. Invest., 101:827-833, 1998), except that the enzymatic digestion was carried out at 55° C. rather than 37° C. (Kikuchi et al., J. Clin. Invest., 101:827-833, 1998). Tissues were fixed in 3% glutaraldehyde (EM grade, Electron Microscopy sciences, Hatfield, Pa.) in 0.2M Sodium Cacodylate buffer for 4 h at 4° C., washed in 0.1M Sodium Cacodylate buffer, and stored at 4° C. in the same buffer. Samples were then imbedded in paraffin, sectioned, and stained with periodic acid-Schiff (PAS) by standard methods.
(§2) Two and a half month-old GAA−/−, MLCcre: Atg7F/F: GAA−/−, and HSAcre: Atg5F/F: GAA−/− mice received three intravenous injections of recombinant human α-glucosidase (rhGAA; Myozyme®, Genzyme Corporation, Framingham, Mass.) at a dose of 100 mg/kg every other week. To diminish a hypersensitivity reaction, diphenhydramine hydrochloride was injected intraperitoneally at a dose of 5 mg/kg 15 minutes before the second and third injections of rhGAA. The mice were sacrificed 7 days after the last injection. Twelve GAA−/−, 11 HSAcre: Atg5F/F: GAA−/−, and 9 MLCcre: Atg7F/F: GAA−/− were treated with rhGAA.

GAA−/− mice [3] = experiment: Effect of ERT on ubiquitinated (Ub) proteins in fast muscle of GAA−/− mice (FK2 immunoblot); assay type: in vivo, mouse; details: gastrocnemius total lysates, ERT-treated vs untreated
Method: Whole muscle tissues were homogenized in RIPA buffer (PBS, 1% NP40, 0.5% Sodium deoxycholate, 0.1% SDS) containing a protease inhibitor cocktail tablet (Roche Diagnostics, Mannheim, Germany). Samples were centrifuged for 30 min at 13,000 rpm at 4° C. Alternatively, detergent-soluble and -insoluble fractions from muscle tissues were obtained as previously described (Hara et al. 2006). Briefly, muscle tissues were homogenized in ice-cold 0.25 M sucrose buffer (50 mM Tris-HCl pH 7.4, 1 mM EDTA; ˜350 μl/100 mg tissue) with protease inhibitors. Homogenates were centrifuged at a low speed for […] at 4° C., and the supernatants were lysed with an equal volume of cold sucrose buffer with 1% Triton X-100. Lysates were then centrifuged at 13,000 g for […] at 4° C. to collect fractions soluble in 0.5% Triton-X-100; the pellets (Triton-X-100-insoluble fractions) were resuspended in 1% SDS in PBS.
Protein concentrations of the supernatants of the total lysates or soluble fractions were measured using Bio-Rad Protein Assay (Bio-Rad Laboratories, Inc., Hercules, Calif.). Equal amounts of protein were run on SDS-PAGE gels (Invitrogen) followed by electro-transfer onto nitrocellulose membranes (Invitrogen). […]

[4] = test system: MLCcre: Atg7F/F: GAA−/− mice; experiment: LAMP-1/LC3 immunostaining of single fast (psoas) fibers after ERT, MLCcre:Atg7F/F:GAA−/− mice; assay type: in vivo, mouse; details: ERT-treated
Method: (§3) White gastrocnemius, soleus, and psoas muscles were removed immediately after sacrifice and pinned to Sylgaard-coated dishes for fixation with 2% paraformaldehyde in 0.1M phosphate buffer for 1 h, followed by fixation in methanol (−20° C.) for 6 min. Single fibers were obtained by manual teasing. Fibers were placed in a 24-well plate in Blocking Reagent (Vector Laboratories, Burlingame, Calif.) for 1 h. The fibers were then permeabilized, incubated with primary antibody overnight at 4° C., washed, incubated with secondary antibody for 2 h, washed again, and mounted in Vectashield (Vector Laboratories, Burlingame, Calif.) on a glass slide. The fibers were analyzed using a Zeiss 510 META confocal microscope. The white part of gastrocnemius and psoas muscles in mice are a good source of glycolytic fast-twitch type II fibers (referred to as fast fibers), whereas soleus muscle is a good source of oxidative slow-twitch type I fibers (referred to as slow fibers). At least three animals from each genotype were used to obtain single muscle fibers for immunostaining. For each immunostaining and for confocal analysis, at least 20 fibers were isolated from each of the three muscle groups. […]

[5] = test system: HSAcre: Atg5F/F: GAA−/− mice; experiment: Effect of ERT on ubiquitinated (Ub) proteins in fast muscle of HSAcre:Atg5F/F:GAA−/− mice (FK2 immunoblot, immunostaining); assay type: in vivo, mouse; details: ERT-treated vs untreated
Method: as §3
Protein concentrations of the supernatants of the total lysates or soluble fractions were measured using Bio-Rad Protein Assay (Bio-Rad Laboratories, Inc., Hercules, Calif.). […]

[6] = test system: HSAcre: Atg5F/F: GAA−/− mice; experiment: Effect of ERT on glycogen levels in HSAcre:Atg5F/F:GAA−/− mice (biochemical glycogen measurement, PAS staining); assay type: in vivo, mouse; details: for Glycogen level, Treated: rhGAA 100 mg/kg i.v., three injections every other week; for Excess Glycogen: treated value minus wild type level
Method: as §1, §2

GAA−/− mice [7] = experiment: LAMP-1/LC3 immunostaining of single fast (psoas) fibers after ERT, GAA−/− mice; assay type: in vivo, mouse; details: ERT-treated
Method: as §3

Pompe disease = details: cited from earlier work
[8] = test system: genetically engineered mice that lack expression of GAA; details: mice lacking GAA; cited from earlier work
[9] = test system: MLCcre: Atg7F/F: GAA−/− mice; experiment: Effect of ERT on glycogen levels in MLCcre:Atg7F/F:GAA−/− mice (biochemical glycogen measurement, PAS staining); assay type: in vivo, mouse; details: for Glycogen level after ERT (in words): MLCcre:Atg7F/F:GAA−/− mice, fast muscle; for Glycogen level, Treated: rhGAA 100 mg/kg i.v., three injections every other week; for Excess Glycogen: treated value minus wild type level
Method: as §1, §2

Cn1cnc(N)c2ncnc1-2 [3-MA, 3-Methyladenine]
ip LD50 dose [1]: 280 mg/kg | Highest possible safety dose (TA muscle; 40 l per TA (so in the source), intramuscular): 5 mg/mL | Toxicity / tolerability (TA muscle; mouse, in vivo, ip): no toxicity was observed | Inhibition of autophagy in the injected muscle (autophagy): did not inhibit autophagy effectively

ERT: recombinant human α-glucosidase (rhGAA; Myozyme®, Genzyme Corporation) given intravenously as enzyme replacement therapy
Glycogen clearance after ERT (in words) (GAA−/− mice [2]; GAA−/− mice with genetically intact autophagy, skeletal muscle): cleared glycogen poorly | Treated vs. Untreated GAA−/− % Reduction (GAA−/− mice [2]; Gastroc): 27% | Glycogen level, Treated (GAA−/− mice [2]; Gastroc): 52.5 ± 22.7 μg glucose/hr/mg protein | Excess Glycogen (GAA−/− mice [2]; Gastroc): 48.1 μg glucose/hr/mg protein | Treated vs. Untreated GAA−/− % Reduction (GAA−/− mice [2]; Heart): 100% | Glycogen level, Treated (GAA−/− mice [2]; Heart): 0.6 ± 1.2 μg glucose/hr/mg protein | Excess Glycogen (GAA−/− mice [2]; Heart): 0 μg glucose/hr/mg protein | Treated vs. Untreated GAA−/− % Reduction (GAA−/− mice [2]; Quad): 28% | Glycogen level, Treated (GAA−/− mice [2]; Quad): 54.5 ± 29.6 μg glucose/hr/mg protein | Excess Glycogen (GAA−/− mice [2]; Quad): 50.1 μg glucose/hr/mg protein | Amount of ubiquitinated (Ub) proteins, FK2 immunoblot (GAA−/− mice [3]): No difference in the amount of the Ub-proteins; also recorded: No reduction of ubiquitinated-proteins | Expanded lysosomes (LAMP-1 immunostaining) [4]: reduce in size and appear normal | Ub-proteins, FK2 immunostaining of single fast (psoas) myofibers [5]: clearly observed in untreated, but not in ERT-treated myofibers | Amount of ubiquitinated (Ub) proteins, FK2 immunoblot ([5]; gastrocnemius, soluble and non-soluble fractions): A significant drop in the amount of Ub-proteins; also recorded: significant decrease in the amount of ubiquitinated-proteins | Glycogen level after ERT (in words) ([6]; HSAcre:Atg5F/F:GAA−/− mice, fast muscle): reduction of glycogen levels to normal or near normal levels; also recorded: complete removal of the accumulated glycogen | Treated vs. Untreated GAA−/− % Reduction ([6]; HSAcre:Atg5F/F:GAA−/−, Gastroc): 94% | Glycogen level, Treated ([6]; HSAcre:Atg5F/F:GAA−/−, Gastroc): 4.1 ± 4.9 μg glucose/hr/mg protein | Excess Glycogen ([6]; HSAcre:Atg5F/F:GAA−/−, Gastroc): 0 μg glucose/hr/mg protein | Treated vs. Untreated GAA−/− % Reduction ([6]; HSAcre:Atg5F/F:GAA−/−, Heart): 100% | Glycogen level, Treated ([6]; HSAcre:Atg5F/F:GAA−/−, Heart): 0.0 ± 0.0 μg glucose/hr/mg protein | Excess Glycogen ([6]; HSAcre:Atg5F/F:GAA−/−, Heart): 0 μg glucose/hr/mg protein | Treated vs. Untreated GAA−/− % Reduction ([6]; HSAcre:Atg5F/F:GAA−/−, Quad): 94% | Glycogen level, Treated ([6]; HSAcre:Atg5F/F:GAA−/−, Quad): 5.0 ± 4.9 μg glucose/hr/mg protein | Excess Glycogen ([6]; HSAcre:Atg5F/F:GAA−/−, Quad): 0.6 μg glucose/hr/mg protein | Glycogen clearance, PAS-stained sections ([6]; HSAcre:Atg5F/F:GAA−/−, fast (gastrocnemius) muscle, 4 month-old): near complete glycogen clearance | Autophagic buildup (LC3 immunostaining) (GAA−/− mice [7]): this buildup persists in ERT-treated GAA−/− mice | Lysosomal size (LAMP-1 immunostaining) (GAA−/− mice [7]): even larger than those in the untreated fiber | Glycogen clearance from skeletal muscle (Pompe disease): less effective for glycogen clearance from skeletal muscle | Glycogen clearance in cardiac muscle (Pompe disease): effective for glycogen clearance in cardiac muscle | Glycogen clearance from type I muscle fibers [8]: effective in clearing gylcogen from type I muscle fibers | Glycogen clearance from type II muscle fibers [8]: not type II muscle fibers | Glycogen level after ERT (in words) [9]: reduction of glycogen levels to normal or near normal levels | Glycogen level after ERT (in words) ([9]; listed as recombinant enzyme): dramatic reduction in the glycogen level approaching wild type levels | Treated vs. Untreated GAA−/− % Reduction ([9]; MLCcre:Atg7F/F:GAA−/−, Gastroc): 88% | Glycogen level, Treated ([9]; MLCcre:Atg7F/F:GAA−/−, Gastroc): 8.6 ± 8.9 μg glucose/hr/mg protein | Excess Glycogen ([9]; MLCcre:Atg7F/F:GAA−/−, Gastroc): 4.2 μg glucose/hr/mg protein | Treated vs. Untreated GAA−/− % Reduction ([9]; MLCcre:Atg7F/F:GAA−/−, Heart): 100% | Glycogen level, Treated ([9]; MLCcre:Atg7F/F:GAA−/−, Heart): 0.2 ± 0.4 μg glucose/hr/mg protein | Excess Glycogen ([9]; MLCcre:Atg7F/F:GAA−/−, Heart): 0 μg glucose/hr/mg protein | Treated vs. Untreated GAA−/− % Reduction ([9]; MLCcre:Atg7F/F:GAA−/−, Quad): 82% | Glycogen level, Treated ([9]; MLCcre:Atg7F/F:GAA−/−, Quad): 13.7 ± 10 μg glucose/hr/mg protein | Excess Glycogen ([9]; MLCcre:Atg7F/F:GAA−/−, Quad): 9.3 μg glucose/hr/mg protein | Glycogen clearance, PAS-stained sections ([9]; MLCcre:Atg7F/F:GAA−/−, fast (gastrocnemius) muscle, 4 month-old): near complete glycogen clearance
